This note sets out measurements from patent US12594276B2, “Inhibitors of human immunodeficiency virus replication” (ViiV Healthcare UK (No.5) Limited, priority 2024, dated 2026).

SMILES strings stand for the structures. pEC50: −log10 of the molar value.

Data set [1] in a line: Compound cytotoxicity, XTT-based colorimetric assay. In kind it is cell-based. The note with it: human; uninfected MT2 cells, day 4, XTT; read-out: CC50. The method, boiled down:
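Uninfected MT2 cells, antiviral-assay protocol without virus; XTT colorimetric readout day 4; CC50 reported.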
(In general: Tetrazolium dyes change colour on reduction, which living cells bring about.)

In data set [2] the test system is recombinant NL4-3 virus (nef section replaced with Renilla luciferase gene) in MT-2 cells. The experiment in a line: HIV cell culture assay (antiviral activity, luciferase readout). The format is cell-based. The note with it: Renilla, NL43, MT-2 cells infected for 4-5 days with recombinant NL4-3 Renilla luciferase virus. The essentials: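 293T transfection → virus harvest at 2-3 d → titer in MT-2 by luciferase. MT-2 + virus + serial cpd dilutions, 4-5 d. Live-cell luciferase read; EC50 by median effect fit.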

`CS(=O)(=O)Nc1nn(CCN2CCC(C(F)(F)F)C2)c2c(-n3c([C@H](Cc4cc(F)cc(F)c4)NC(=O)Cn4nc(C(F)F)c5c4C(F)(F)[C@@H]4C[C@H]54)nc4nc(C5CCC(F)(F)CC5)ccc4c3=O)ccc(Cl)c12` (stereo partly drawn) [Example 199, N-[(1S)-1-[(3P)-3-(4-chloro-3-methanesulfonamido-1-{2-[3-(trifluoromethyl)pyrrolidin-1-yl]ethyl}-1H-indazol-7-yl)-7-(4,4-difluorocyclohexyl)-4-oxo-3H,4H-pyrido[2,3-d]pyrimidin-2-yl]-2-(3,5-difluorophenyl)ethyl]-2-[(2S,4R)-9-(difluoromethyl)-5,5-difluoro-7,8-diazatricyclo[4.3.0.0^2,^4]nona-1(6),8-dien-7-yl]acetamide]: the CC50 at 4 days in data set [1] was more than 50000 pM. Moreover, in data set [2], the pEC50 was 10.64.
On the same counts, the results for `CC1(F)CCN(CCn2nc(NS(C)(=O)=O)c3c(Cl)ccc(-n4c([C@H](Cc5cc(F)cc(F)c5)NC(=O)Cn5nc(C(F)F)c6c5C(F)(F)[C@@H]5C[C@H]65)nc5nc(C6CCC(F)(F)CC6)ccc5c4=O)c32)C1` (stereo partly drawn) [Example 211, N-[(1S)-1-[(3P)-3-{4-chloro-1-[2-(3-fluoro-3-methylpyrrolidin-1-yl)ethyl]-3-methanesulfonamido-1H-indazol-7-yl}-7-(4,4-difluorocyclohexyl)-4-oxo-3H,4H-pyrido[2,3-d]pyrimidin-2-yl]-2-(3,5-difluorophenyl)ethyl]-2-[(2S,4R)-9-(difluoromethyl)-5,5-difluoro-7,8-diazatricyclo[4.3.0.0^2,^4]nona-1(6),8-dien-7-yl]acetamide] are more than 50000 pM and 10.92.
For the molecule `CS(=O)(=O)Nc1nn(CCN2CC3C(C2)C(F)(F)C3(F)F)c2c(-n3c([C@H](Cc4cc(F)cc(F)c4)NC(=O)Cn4nc(C(F)F)c5c4C(F)(F)[C@@H]4C[C@H]54)nc4nc(C5CCC(F)(F)CC5)ccc4c3=O)ccc(Cl)c12` (stereo partly drawn) [Example 214, N-[(1S)-1-[(3P)-3-[4-chloro-3-methanesulfonamido-1-(2-{6,6,7,7-tetrafluoro-3-azabicyclo[3.2.0]heptan-3-yl}ethyl)-1H-indazol-7-yl]-7-(4,4-difluorocyclohexyl)-4-oxo-3H,4H-pyrido[2,3-d]pyrimidin-2-yl]-2-(3,5-difluorophenyl)ethyl]-2-[(2S,4R)-9-(difluoromethyl)-5,5-difluoro-7,8-diazatricyclo[4.3.0.0^2,^4]nona-1(6),8-dien-7-yl]acetamide], the CC50 at 4 days in data set [1] was more than 50000 pM. Also, the pEC50 in data set [2] is 10.82.
On the same counts, the results for `CS(=O)(=O)Nc1nn(CCN2CCOCC2)c2c(-n3c([C@H](Cc4cc(F)cc(F)c4)NC(=O)Cn4nc(C5CC5)c5c4C[C@@H]4C[C@H]54)nc4nc(C5CCC(F)(F)CC5)cc(C(F)F)c4c3=O)ccc(Cl)c12` [Example 227, N-[(1S)-1-[(3P)-3-{4-chloro-3-methanesulfonamido-1-[2-(morpholin-4-yl)ethyl]-1H-indazol-7-yl}-7-(4,4-difluorocyclohexyl)-5-(difluoromethyl)-4-oxo-3H,4H-pyrido[2,3-d]pyrimidin-2-yl]-2-(3,5-difluorophenyl)ethyl]-2-[(2S,4S)-9-cyclopropyl-7,8-diazatricyclo[4.3.0.0^2,^4]nona-1(6),8-dien-7-yl]acetamide] are more than 50000 pM and 10.80.
For `Cc1cc(C2CCC(F)(F)CC2)nc2nc([C@H](Cc3cc(F)cc(F)c3)NC(=O)Cn3nc(C4CC4)c4c3C[C@@H]3C[C@H]43)n(-c3ccc(Cl)c4c(NS(C)(=O)=O)nn(CCN5CCC(C)(F)C5)c34)c(=O)c12` (stereo partly drawn) [Example 280, N-[(1S)-1-[(3P)-3-{4-chloro-1-[2-(3-fluoro-3-methylpyrrolidin-1-yl)ethyl]-3-methanesulfonamido-1H-indazol-7-yl}-7-(4,4-difluorocyclohexyl)-5-methyl-4-oxo-3H,4H-pyrido[2,3-d]pyrimidin-2-yl]-2-(3,5-difluorophenyl)ethyl]-2-[(2S,4S)-9-cyclopropyl-7,8-diazatricyclo[4.3.0.0^2,^4]nona-1(6),8-dien-7-yl]acetamide], in that order: more than 50000 pM and 11.22.

The CC50 is the concentration that lowers cell viability or growth by half. The pEC50 is the EC50 on a negative log10 scale, so that one unit is a factor of ten.
